In PubChem BioAssay (NCI):
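Growth conditions: 96-well plates. Treatment: test compound, 48 hours, 5 concentrations. Analysis: linear interpolation between bracketing concentrations; unreached endpoints set to highest concentration. GI50: concentration for 50% inhibition of growth. TGI: total growth inhibition.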 Where a SMILES comes first, the peptide text is derived from it.

Columns and labels:
Experiment in all cases: NCI tumour cell line growth inhibition, 48 h
[1] = tested on: HCC-2998 colon
[2] = tested on: NCI-H23 lung
[3] = tested on: MALME-3M melanoma
[4] = tested on: NCI/ADR-RES ovarian
[5] = tested on: COLO 205 colon
[6] = tested on: OVCAR-5 ovarian
[7] = tested on: SF-539 CNS
[8] = tested on: LOX IMVI melanoma
[9] = tested on: SW-620 colon
[10] = tested on: SK-OV-3 ovarian

SMILES	TGI [1] [µM]	TGI [2] [µM]	TGI [3] [µM]	TGI [4] [µM]	TGI [5] [µM]	TGI [6] [µM]	TGI [7] [µM]	TGI [8] [µM]	TGI [9] [µM]	TGI [10] [µM]	GI50 [10] [µM]	GI50 [5] [µM]	GI50 [7] [µM]	GI50 [8] [µM]	GI50 [9] [µM]
COC(=O)c1c(C)cccc1C1CN=NC12Cc1cccc(C)c1C2=O (stereo not given)	> 100	> 100	87.2	> 100	> 100	> 100	44.5	32.7	> 100	–	–	–	–	–	–
COc1ccc(C[C@H]2COC(=O)[C@@H]2Cc2ccccc2)cc1OC	–	> 100	> 100	> 100	–	> 100	–	> 100	> 100	> 100	–	–	–	–	–
N#CC(NNC(=O)c1ccccc1O)c1ccc(O)cc1 (stereo not given)	–	> 100	> 100	–	> 100	> 100	> 100	> 100	> 100	> 100	–	–	–	–	–
CC(C)(C)C(=O)O[C@H]1C=C[C@@H](O)[C@@H]2[C@H]1[C@@H]1C=C[C@H]2C1	32.4	48	–	96.1	> 100	6.42	92.9	> 100	> 100	> 100	–	–	–	–	–
CCCCCCCCCCC[N+]1(Cc2ccccc2)CC2CCN(Cc3ccccc3)CC2C1 (stereo not given)	2	1.03	1.26	–	2.18	2.9	2.45	1.6	1.58	3.13	–	–	–	–	–
Cc1cc(=O)[nH]c(NN2C(Cl)C(=O)C2c2ccco2)n1 (stereo not given)	> 100	> 100	–	–	> 100	> 100	85.9	> 100	> 100	–	–	–	–	–	–
O=C1/C(=C/c2cccs2)N=C(c2ccccc2)N1c1nc2ccccc2s1	> 100	> 100	–	> 100	–	> 100	> 100	> 100	> 100	–	–	–	–	–	–
S=c1oc(CCCCCCCCc2nn(CNc3ccc(Cl)cc3)c(=S)o2)nn1CNc1ccc(Cl)cc1	> 100	> 100	> 100	> 100	22.2	> 100	–	–	> 100	> 100	–	–	–	–	–
COC(C/C=C\C=C\CC/C=C/CC(C)/C=C/C(=C\C(=O)O)CC(=O)O)/C(C)=C\C=C(/C)C(=O)O (stereo not given)	> 100	> 100	> 100	–	> 100	> 100	–	–	> 100	> 100	–	–	–	–	–
c1cc2c3c(c1)[C@@H]1O[C@@H]1c1cccc(c1-3)[C@@H]1O[C@H]21	–	33.1	29.6	61.6	44.6	31.4	–	10.7	–	> 100	–	–	–	–	–
COc1ccccc1NC(=O)CSC(N)=O	> 100	> 100	> 100	–	> 100	> 100	70.4	> 100	> 100	> 100	–	–	–	–	–
CCC(C)C(NC(=O)C1CCCN1)C(=O)NC(C(=O)NCC(=O)NC(CC(N)=O)C(=O)NC(CC(C)C)C(=O)NC(CC(C)C)C(=O)NC(CCCCN)C(N)=O)C(C)C (stereo not given) (H-PIVGNLLK-NH2; configuration not given here)	–	> 75	> 75	> 75	> 75	> 75	> 75	> 75	> 75	> 75	–	–	–	–	–
Cc1ccc(C(=O)NN=C(/N=N/c2cccc(C)c2)c2ccc(N(C)C)cc2)cc1	> 100	> 100	–	> 100	> 100	> 100	> 100	> 100	> 100	> 100	–	–	–	–	–
O=C1/C(=C/C=C/c2ccccc2)CCC1CNc1ccc(Br)cc1 (stereo not given)	> 100	> 100	0.246	–	48.6	> 100	> 100	> 100	> 100	> 100	–	–	–	–	–
NNc1nnc(-c2ccccc2)nc1Cc1ccccc1	> 100	> 100	26.3	–	> 100	> 100	64.1	30.5	> 100	> 100	–	–	–	–	–
Cc1cn(C2CC(SCCO)C(CO)O2)c(=O)[nH]c1=O (stereo not given)	> 100	> 100	> 100	> 100	> 100	> 100	> 100	–	> 100	> 100	–	–	–	–	–
O=c1oc2ccccc2c(O)c1C(c1ccc(O)cc1)c1c(O)c2ccccc2oc1=O	> 100	> 100	> 100	> 100	> 100	–	–	> 100	> 100	–	–	–	–	–	–
Cc1sc2nc3n(sc4nc5sc(C)c(C)c5c(=O)n43)c(=O)c2c1C	> 100	> 100	–	> 100	> 100	> 100	> 100	> 100	> 100	> 100	–	–	–	–	–
NC(=O)CC[C@H]1C(=O)N=C(N)N1C(=O)OCc1ccccc1	> 100	> 100	> 100	> 100	> 100	> 100	–	> 100	> 100	–	–	–	–	–	–
O=C(c1ccccc1)c1ccc2nc(-c3c(Cl)c(Cl)c(Cl)c(Cl)c3C(=O)Nc3ccco3)[nH]c2c1	53.1	> 100	–	62.4	> 100	> 100	–	> 100	> 100	> 100	–	–	–	–	–
CCOC(=O)c1c(SCCN2CCCCC2)n(-c2ccccc2)c(=S)n(-c2ccccc2)c1=O	> 53.4	34.8	30.3	41.7	19.9	> 100	–	26.2	13.8	> 100	–	–	–	–	–
CCn1c(O)c(C(=O)NC(C)c2ccc([N+](=O)[O-])cc2)c(=O)n(CC)c1=S (stereo not given)	10.7	4.63	–	–	3.29	6.77	13.4	10.9	10.5	7.38	–	–	–	–	–
CCOC(=O)/C(C1=N[C@H](C(=O)OCC)CS1)=C(\O)c1ccccc1	> 100	> 100	> 100	–	> 100	> 100	–	> 100	> 100	–	–	–	–	–	–
C=C1C(=O)O[C@H]2[C@H]1CC/C(COC(=O)/C=C/C(=O)OC/C1=C/CC[C@@]3(C)O[C@H]3[C@H]3OC(=O)C(=C)[C@@H]3CC1)=C\CC[C@@]1(C)O[C@@H]21	–	–	–	–	1.24	–	7.86	2.4	1.11	> 100	> 100	0.351	2.5	1.07	0.338

SMILES	TGI [1] [µM]	TGI [2] [µM]	TGI [3] [µM]	TGI [4] [µM]	TGI [5] [µM]	TGI [6] [µM]	TGI [7] [µM]	TGI [8] [µM]	TGI [9] [µM]	TGI [10] [µM]	GI50 [10] [µM]	GI50 [5] [µM]	GI50 [7] [µM]	GI50 [8] [µM]	GI50 [9] [µM]
O=[N+]([O-])c1cccc([N+](=O)[O-])c1Cl	–	40.5	34.7	57.4	91.2	43.1	35	6.88	> 100	–	–	–	–	–	–
O=c1cnc2cc3ccccc3cc2[nH]1	> 100	> 100	> 100	> 100	> 100	> 100	–	> 100	> 100	> 100	–	–	–	–	–
Cn1c(O)c(/C=N/c2ncccn2)c(=O)[nH]c1=O	–	> 100	> 100	> 100	> 100	> 100	> 100	> 100	> 100	> 100	–	–	–	–	–
Nc1cc2ncnc(Nc3cccc(Br)c3)c2cn1	–	> 100	> 100	> 100	> 100	> 100	> 100	> 100	> 100	74.4	–	–	–	–	–
Cc1cc(C)c(C#N)c(SC(=S)NC(=O)c2ccccc2)n1	> 100	> 100	> 100	> 100	> 100	> 100	> 100	–	> 100	–	–	–	–	–	–
CC(C)C(=O)/C=C/c1ccccc1	> 100	> 100	–	–	> 100	> 100	> 100	> 100	> 100	> 100	–	–	–	–	–
C/C=C\C(CC(=O)NCCc1c[nH]c2ccccc12)CC(=O)OC (stereo not given)	> 100	> 100	> 100	> 100	> 100	> 100	–	–	> 100	> 100	–	–	–	–	–
C/C(=C\COP(=O)(O)OP(=O)(O)O)CC/C=C(\C)CNc1ccccc1	–	–	–	> 50	> 50	> 50	> 50	> 50	> 50	> 50	–	–	–	–	–
CCCOC1OC(CS(=O)(=O)O)C(OC(C)=O)C(OC(C)=O)C1OC(C)=O (stereo not given)	> 100	> 100	> 100	> 100	> 100	> 100	–	> 100	> 100	> 100	–	–	–	–	–
CCOC(=O)NC(OCc1ccccc1)(C(=O)OC)C(F)(F)F (stereo not given)	> 100	> 100	–	> 100	> 100	> 100	> 100	> 100	> 100	> 100	–	–	–	–	–
Cc1ccc(Cl)c2c(=O)cc(-c3ccccc3)[nH]c12	–	> 100	> 100	–	> 100	> 100	> 100	> 100	> 100	> 100	–	–	–	–	–
COc1ccc(C(=O)/C=C/c2ccc(OCCCOc3ccc(/C=C/C(=O)c4ccc(OC)c(OC)c4)cc3)cc2)cc1OC	> 100	–	–	> 100	> 100	–	> 100	–	> 100	> 100	–	–	–	–	–
O=C1NC(=S)N/C1=C\c1ccc(Sc2ccccc2C(=O)O)s1	> 100	> 100	> 100	> 100	> 100	> 100	–	> 100	> 100	–	–	–	–	–	–
Cc1cccc(=O)c([O-])c1.Cc1cccc(=O)c([O-])c1.Cc1cccc(=O)c([O-])c1.Cc1cccc(=O)c([O-])c1.[Th+4]	> 100	> 76.6	> 100	–	> 100	> 100	54.3	> 100	> 100	> 100	–	–	–	–	–
O=C(NCCNCCO)N/N=C/c1ccccc1	–	> 100	> 100	–	–	–	> 100	> 100	> 100	> 100	–	–	–	–	–
COC(CC1(CCNc2ccccc2)C(=O)N(COCC[Si](C)(C)C)c2ccccc21)OC (stereo not given)	4.12	32.9	–	39.6	9.09	35	–	29.7	> 55.3	30	–	–	–	–	–
CCC(=O)Nc1ccc(N2C(=O)/C(=C/c3ccc(O)c(OC)c3)N=C2c2ccccc2)cc1	> 100	> 100	> 100	> 100	–	> 100	> 100	> 100	> 100	> 100	–	–	–	–	–
COC(C[C@H]1CCCC[C@]1(O)/C(=C\CO[Si](C(C)C)(C(C)C)C(C)C)Sc1ccccc1)OC	34.2	> 100	86.4	> 100	47.4	> 100	–	37.5	–	> 100	–	–	–	–	–
O=c1[nH]nc(N/N=C\c2ccc(Cl)cc2)c2ccccc12	–	40.1	45.4	39	45.9	31.8	47.6	–	> 100	34.6	–	–	–	–	–
CC(=O)OCC1(CNc2nc(N)ncc2C#N)CC(CCc2ccccc2)C1 (stereo not given)	–	> 100	> 100	> 100	> 100	> 100	> 100	> 100	> 100	–	–	–	–	–	–
COc1ccc(OC)c(-c2cn3c(n2)sc2ccccc23)c1	–	> 100	> 100	> 100	> 100	> 100	> 100	> 100	> 100	> 100	–	–	–	–	–
c1ccc2c(c1)ccc1nc(-c3ccc4c(c3)OCO4)c3c(c12)CCC3	> 100	> 100	> 100	> 100	> 100	> 100	> 100	–	> 100	> 100	–	–	–	–	–
COc1ccc2c3c([nH]c2c1)-c1nc2ccccc2c(=O)n1CC3	> 25	–	–	> 25	> 25	> 25	> 25	–	> 25	> 25	–	–	–	–	–
